For one series, the system named is 4T1. The experiment in a line: ROS production, DHR staining, flow cytometry. The format is cell-based, mouse. Also noted: key: ↑: induction; ↓: inhibition; ↔: no effect. Particulars: 4T1, IC50 for 72 h. The protocol: (§1) The cells were stained with CFSE (1 µM) in PBS containing 0.1% (v/v) FCS for 10 min. Afterwards, cells were washed with PBS, and then seeded with growth medium in 6-well plates. The plates were incubated for 24 h under standard culture conditions. […] Subsequently, the cells were detached using 0.5 mL of 0.05% (v/v) Trypsin–EDTA for 3 min at 37 °C. Then trypsin was deactivated by the addition of FCS-containing growth medium. The cell suspensions were collected, centrifuged for 3 min at 800 rpm, and the cell pellets were resuspended in fresh PBS. Finally, the samples were analyzed by using flow cytometry. For ROS production analyses, the procedure was performed exactly as described above for the cell division experiments, except that the CFSE staining solution was replaced by DHR staining solution resulting in 1 µM of DHR in PBS containing 0.1% (v/v) FCS[34],[35].

The test system of another series is BT-474. The experiment in a line: Cell division analysis, CFSE staining, flow cytometry. The format is cell-based, human. More on the design: key: ↑: induction; ↓: inhibition; ↔: no effect. Particulars: BT-474, IC50 for 72 h. The protocol: as §1, with “cytometry.” for “cytometry. For ROS production analyses, the procedure was performed exactly as described above for the cell division experiments, except that the CFSE staining solution was replaced by DHR staining solution resulting in 1 µM of DHR in PBS containing 0.1% (v/v) FCS[34],[35].”

The next series deals with HCC1937. Described as above. The format is cell-based, human. Also noted: key: ↑: induction; ↓: inhibition; ↔: no effect. Conditions: HCC1937, IC50 for 72 h. As to the method: as §1, with “cytometry.” for “cytometry. For ROS production analyses, the procedure was performed exactly as described above for the cell division experiments, except that the CFSE staining solution was replaced by DHR staining solution resulting in 1 µM of DHR in PBS containing 0.1% (v/v) FCS[34],[35].”

A further series deals with MCF-7. Described as above. Also noted: key: ↑: induction; ↓: inhibition; ↔: no effect. The format is cell-based, human. Conditions: MCF-7, IC50 for 72 h. The protocol: as §1, with “cytometry.” for “cytometry. For ROS production analyses, the procedure was performed exactly as described above for the cell division experiments, except that the CFSE staining solution was replaced by DHR staining solution resulting in 1 µM of DHR in PBS containing 0.1% (v/v) FCS[34],[35].”

In a further series the test system is MDA-MB-468. Described as above. More on the design: key: ↑: induction; ↓: inhibition; ↔: no effect. Particulars: MDA-MB-468, IC50 for 72 h. The format is cell-based, human. The protocol:
as §1, with “cytometry.” for “cytometry. For ROS production analyses, the procedure was performed exactly as described above for the cell division experiments, except that the CFSE staining solution was replaced by DHR staining solution resulting in 1 µM of DHR in PBS containing 0.1% (v/v) FCS[34],[35].”

In series [1] the test system is 4T1 mouse breast cancer cells (TNBC). Nature of the series: Syngeneic orthotopic 4T1 breast cancer model in BALB/c mice, tumor volume. The format is in vivo. The text has this: Compound 19 was selected to be tested against a syngeneic breast cancer model induced by orthotopic inoculation of 4T1 mouse breast cancer cells (TNBC) into BALB/c mice. In that exploratory study, we aimed to investigate for the first time a proposed anticancer efficacy of that compound. For that purpose, three groups were included in the study, each comprising eight animals. The resulting total number of 24 animals aimed to avoid under- or overpowering of the study. The animals were kept under standard laboratory conditions with an ad libitum regime for food and water intake. 5 × 10^4 of 4T1 cells in 50 µL PBS were inoculated in the fourth right mammary fat pad of female mice at day 0. Anesthesia was induced using a combination of ketamine and xylazine at doses of 60 mg/kg and 7.5 mg/kg, respectively.
On day 6, the mice were assigned to the study groups using a stratified randomization approach, ensuring that the mean tumor volumes were as similar as possible across all groups. The control group was treated with 400 µL of vehicle solution, the low dose compound 19 group with 5 mg/kg in 400 µL of vehicle, and the high dose group with […] in 400 µL of vehicle. The vehicle was 4% (v/v) DMSO in PBS, and the administration route was intraperitoneal (i.p.). The animals were treated daily on days 6–10 (starting from the day when tumors became palpable), 13–17 and day 20. Animals were visually examined daily, and urine samples were collected on the first and last day of treatment and analyzed by Multistix urine test stripes (Siemens Healthineers, Erlangen, Germany). On day 21 of the experiment, the mice were sacrificed using cervical dislocation. Following the sacrifice, the tumor diameters were measured using a caliper. The tumor volume (V) was then calculated using the formula V = L*W^2*0.52[36], where L represents the longest diameter and W the shortest diameter of the tumor.

Series [2] can be described thus: Histopathology of tumors, kidneys, livers and spleens in the 4T1 in vivo study. Also noted: species or system BALB/c mice. The source says:
Tissue samples of tumors, kidneys, livers and spleens were fixed in 4% (v/v) formalin. After fixation, tissues were embedded in paraffin blocks, and 4 µm thick sections were obtained, mounted on glass slides, stained with Hematoxylin Eosin, and analyzed by using an Olympus BX43 microscope (Olympus, Tokyo, Japan). All slides were scanned with a Leica Biosystems Aperio AT2 with ×400 magnification (n = 3 per group). Virtual slides generated from Leica Aperio AT2 (Wetzlar, Germany) were additionally analyzed with Aperio ImageScope (v12.4.3.5008) and with FIJI-ImageJ software.

Each structure is given as a SMILES string.

For the compound `O=c1[nH]c(Nc2ccc([N+](=O)[O-])cc2)nc2ccccc12` [Compound 19, 4′-nitro-9-aza-glycophymine], in the series on 4T1, the ROS entry is given as “↔”. Also, the Proliferation result with BT-474 is “↓”; in the series on HCC1937, “↓”; with MCF-7, “↔”; in the series with MDA-MB-468, “↔”. The “reduction of the tumor volume compared to the control group” value in series [1] (5 mg/kg i.p., day 21) is listed as 30%. The median tumor volume in series [1] (5 mg/kg i.p., days 6–10, 13–17 and 20, measured day 21, control group 205 mm^3) is reported as 143 mm^3. The “tumor suppression at the higher dose” value in series [1] (20 mg/kg i.p., compared with 5 mg/kg) is “no further improvement of the tumor suppression was observed”. Moreover, the “morphological changes in kidney, spleen and liver tissue” value in series [2] (5 and 20 mg/kg i.p., day 21, compared to control group) is “did not cause significant morphological changes”. Further, the “extent of tumor necrosis” value in series [2] (treated animals in comparison to the control group, day 21) was “a higher extent of necrosis was found in treated animals”.

For the origin of these results see PMC11568214, “The impact of 9-azaglycophymine and phenylguanidine derivatives on the proliferation of various breast cancer cell lines in vitro and in vivo” (Scientific Reports, 2024).
